Reference: PubChem BioAssay (NCI)
“And” between values parts separate entries of the source, which are not always exact repeats. Equal entries are not always repeated.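 Exposure lasted 48 hours, with cells grown in 96-well plates and compounds tested at five concentrations. GI50 = concentration required for 50% inhibition of growth. TGI marks complete inhibition of growth.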

What was measured:
Assay in all cases: inhibition of tumour cell growth, NCI panel, 48 h
BT-549 breast = tested on: BT-549 breast
CCRF-CEM leukemia = tested on: CCRF-CEM leukemia
HCT-15 colon = tested on: HCT-15 colon
HL-60(TB) leukemia = tested on: HL-60(TB) leukemia
HS 578T breast = tested on: HS 578T breast
MDA-MB-231 breast = tested on: MDA-MB-231 breast
SF-268 CNS = tested on: SF-268 CNS
SK-MEL-28 melanoma = tested on: SK-MEL-28 melanoma
SK-OV-3 ovarian = tested on: SK-OV-3 ovarian
U251 CNS = tested on: U251 CNS

CC(C)(C)OC(=O)NCCCCCCCCCn1c2c(c3ccccc3c1=O)C(=O)c1ccccc1-2
GI50 (BT-549 breast): 35.1 µM | TGI (BT-549 breast): > 100 µM | GI50 (CCRF-CEM leukemia): > 100 µM | TGI (CCRF-CEM leukemia): > 100 µM | GI50 (HCT-15 colon): > 100 µM | TGI (HCT-15 colon): > 100 µM | GI50 (HL-60(TB) leukemia): > 100 µM | TGI (HL-60(TB) leukemia): > 100 µM | GI50 (HS 578T breast): 14.2 µM | TGI (HS 578T breast): 43.6 µM | GI50 (MDA-MB-231 breast): 31.7 µM | TGI (MDA-MB-231 breast): > 100 µM | GI50 (SF-268 CNS): 32.6 µM | TGI (SF-268 CNS): > 100 µM | GI50 (SK-MEL-28 melanoma): > 100 µM | TGI (SK-MEL-28 melanoma): > 100 µM | GI50 (SK-OV-3 ovarian): 23.6 µM | TGI (SK-OV-3 ovarian): 78.3 µM | GI50 (U251 CNS): 22 µM | TGI (U251 CNS): > 100 µM

O=C(O)/C=C/c1c2ccc(=O)c(O)c-2oc2c(O)c(O)ccc12
TGI (BT-549 breast): > 100 µM | TGI (CCRF-CEM leukemia): 23.2 µM | TGI (HCT-15 colon): > 100 µM | TGI (HL-60(TB) leukemia): > 100 µM | TGI (HS 578T breast): > 100 µM | TGI (MDA-MB-231 breast): 66.5 µM | TGI (SF-268 CNS): > 100 µM | TGI (SK-MEL-28 melanoma): > 100 µM | TGI (SK-OV-3 ovarian): > 100 µM | TGI (U251 CNS): 35.3 µM

Nc1c(C(=O)c2cccc(-c3cccnc3)c2)cnn1-c1ccc(F)cc1
GI50 (BT-549 breast): > 13.2 µM | TGI (BT-549 breast): > 25 µM | GI50 (CCRF-CEM leukemia): > 25 µM | TGI (CCRF-CEM leukemia): > 25 µM | GI50 (HCT-15 colon): > 25 µM | TGI (HCT-15 colon): > 25 µM | GI50 (HL-60(TB) leukemia): > 25 µM | TGI (HL-60(TB) leukemia): > 25 µM | GI50 (HS 578T breast): > 25 µM | TGI (HS 578T breast): > 25 µM | GI50 (MDA-MB-231 breast): > 25 µM | TGI (MDA-MB-231 breast): > 25 µM | GI50 (SF-268 CNS): > 20.9 µM | TGI (SF-268 CNS): > 25 µM | GI50 (SK-MEL-28 melanoma): > 25 µM | TGI (SK-MEL-28 melanoma): > 25 µM | GI50 (SK-OV-3 ovarian): > 25 µM | TGI (SK-OV-3 ovarian): > 25 µM | GI50 (U251 CNS): > 25 µM | TGI (U251 CNS): > 25 µM

Cc1cc(NC(=O)NCCOc2ccc(N3C(N)=NC(N)=NC3(C)C)cc2Cl)ccc1S(=O)(=O)F
GI50 (BT-549 breast): 6.31 µM | TGI (BT-549 breast): > 76.8 µM | GI50 (CCRF-CEM leukemia): 0.805 µM | TGI (CCRF-CEM leukemia): > 67.6 µM | GI50 (HCT-15 colon): 49 µM | TGI (HCT-15 colon): > 100 µM | GI50 (HL-60(TB) leukemia): 1.8 µM | TGI (HL-60(TB) leukemia): 36.8 µM | GI50 (HS 578T breast): 9.84 µM | TGI (HS 578T breast): 76.8 µM | GI50 (MDA-MB-231 breast): 6.11 µM | TGI (MDA-MB-231 breast): > 77.9 µM | GI50 (SF-268 CNS): 1.64 µM | TGI (SF-268 CNS): 99.5 µM | GI50 (SK-MEL-28 melanoma): 3.59 µM | TGI (SK-MEL-28 melanoma): > 91.7 µM | GI50 (SK-OV-3 ovarian): 12 µM | TGI (SK-OV-3 ovarian): > 100 µM | GI50 (U251 CNS): 0.716 µM | TGI (U251 CNS): > 72.9 µM

COc1ccc(-n2nc(C)c3c(Nc4ccc(NC(=O)Nc5cccc(C(F)(F)F)c5)cc4)ncnc32)cc1
GI50 (BT-549 breast): 1.97 µM | TGI (BT-549 breast): 5.32 µM | GI50 (CCRF-CEM leukemia): 2.3 µM | TGI (CCRF-CEM leukemia): 8.76 µM | GI50 (HCT-15 colon): 1.46 µM | TGI (HCT-15 colon): 3.27 µM | GI50 (HL-60(TB) leukemia): 2.31 µM | TGI (HL-60(TB) leukemia): 5.51 µM | GI50 (HS 578T breast): 1.66 µM | TGI (HS 578T breast): 4.17 µM | GI50 (MDA-MB-231 breast): 1.46 µM | TGI (MDA-MB-231 breast): 3.14 µM | GI50 (SF-268 CNS): 2.14 µM | TGI (SF-268 CNS): 5.51 µM | GI50 (SK-MEL-28 melanoma): 1.85 µM | TGI (SK-MEL-28 melanoma): 4.76 µM | GI50 (SK-OV-3 ovarian): 2.13 µM | TGI (SK-OV-3 ovarian): 5.3 µM | GI50 (U251 CNS): 1.08 µM | TGI (U251 CNS): 2.35 µM

COc1ccc2[nH]c3c(C)c4c(c(C)c3c2c1)CN(C)C=C4
TGI (BT-549 breast): 4.41 µM | TGI (CCRF-CEM leukemia): 34.7 µM | TGI (HCT-15 colon): 75.1 µM | TGI (HL-60(TB) leukemia): 52.3 µM | TGI (HS 578T breast): 1.48 µM | TGI (MDA-MB-231 breast): 70 µM | TGI (SF-268 CNS): 0.815 µM | TGI (SK-MEL-28 melanoma): 13.5 µM | TGI (SK-OV-3 ovarian): 56.6 µM | TGI (U251 CNS): 1.45 µM

NC(CSC(c1ccccc1)(c1ccccc1)c1ccccc1)C(=O)O (stereo not given)
GI50 (BT-549 breast): 4.88 µM | TGI (BT-549 breast): 57.8 µM and > 100 µM | GI50 (CCRF-CEM leukemia): 1.59 µM and 0.942 µM | TGI (CCRF-CEM leukemia): 19.4 µM and > 100 µM | GI50 (HCT-15 colon): 2.31 µM and 1.79 µM | TGI (HCT-15 colon): 51.1 µM and > 100 µM | GI50 (HL-60(TB) leukemia): 2.54 µM and 2.11 µM | TGI (HL-60(TB) leukemia): 5.93 µM and 1.53 µM and 8.62 µM | GI50 (HS 578T breast): 0.723 µM | TGI (HS 578T breast): 21 µM and 32.4 µM | GI50 (MDA-MB-231 breast): 1.08 µM | TGI (MDA-MB-231 breast): 4.65 µM and 6.45 µM | GI50 (SF-268 CNS): 4.35 µM and 1.71 µM | TGI (SF-268 CNS): 63.3 µM and 85.7 µM | GI50 (SK-MEL-28 melanoma): 12.2 µM and 4.46 µM | TGI (SK-MEL-28 melanoma): 110 µM and > 100 µM | GI50 (SK-OV-3 ovarian): 0.425 µM | TGI (SK-OV-3 ovarian): 14.8 µM and > 100 µM | GI50 (U251 CNS): 1.11 µM and 0.485 µM | TGI (U251 CNS): 16.9 µM and 32.4 µM and 43.4 µM

CCN1C(=O)N(CC)C2C1NN=c1s/c(=C3\C(=O)Nc4ccccc43)c(=O)n12 (stereo not given)
GI50 (BT-549 breast): 1.06 µM | TGI (BT-549 breast): 32.3 µM | GI50 (CCRF-CEM leukemia): 0.385 µM | TGI (CCRF-CEM leukemia): 27.1 µM | GI50 (HCT-15 colon): 0.41 µM | TGI (HCT-15 colon): > 100 µM | GI50 (HL-60(TB) leukemia): 0.296 µM | TGI (HL-60(TB) leukemia): 0.91 µM | GI50 (HS 578T breast): 0.347 µM | TGI (HS 578T breast): 17.7 µM | GI50 (MDA-MB-231 breast): 2.41 µM | TGI (MDA-MB-231 breast): 49.9 µM | GI50 (SF-268 CNS): 10.6 µM | TGI (SF-268 CNS): 45.1 µM | GI50 (SK-MEL-28 melanoma): 0.891 µM | TGI (SK-MEL-28 melanoma): > 100 µM | GI50 (SK-OV-3 ovarian): 0.781 µM | TGI (SK-OV-3 ovarian): 29.6 µM | GI50 (U251 CNS): 0.556 µM | TGI (U251 CNS): 21 µM
